Experimental data published in ChEMBL document CHEMBL5331122, “Structure-Activity Relationship Study of Antimicrobial Peptide PE2 Delivered Novel Linear Derivatives with Potential of Eradicating Biofilms and Low Incidence of Drug Resistance” (J Med Chem, 2023).
Where a SMILES comes first, the peptide text is derived from it. Bridges are numbered along the chain shown (N, C = ends). [ ]: non-standard residue; d: D form. The star is where a group is joined. Heptanoyl(6-Me) = CC(C)CCCCC(=O)*; Dab = NCC[C@H](N)C(=O)O

What was measured:
Erythrocyte = assay: Hemolytic activity in mouse red blood cell assessed as hemolysis incubated for 1 hr; assay type: toxicity, cell-based; conditions: dose 4-256 µg/ml
[1] = Acute toxicity in Kunming mouse assessed as survival rate at 20 mg/kg, ip measured for 7 days; assay type: organism-based; conditions: in vivo, 168 h, time 7 day
[2] = Acute toxicity in Kunming mouse assessed as survival rate at 20 to 31.7 mg/kg, ip measured at 2 hrs; assay type: organism-based; conditions: in vivo, dose 20-31.7 mg/kg
[3] = Acute toxicity in Kunming mouse assessed as survival rate at 31.7 mg/kg, ip measured after 2 hrs; assay type: organism-based; conditions: in vivo
[4] = Acute toxicity in ip dosed Kunming mouse assessed as lethal dose measured upto 7 days; assay type: organism-based; conditions: Kunming, in vivo, time < 7 day

CC(C)CCCCC(=O)N[C@@H](CCN)C(=O)N[C@H](C(=O)N[C@@H](CCN)C(=O)N[C@H]1CCNC(=O)[C@H]([C@@H](C)O)NC(=O)[C@H](CCN)NC(=O)[C@H](CCN)NC(=O)[C@H](CC(C)C)NC(=O)[C@@H](Cc2ccccc2)NC(=O)[C@H](CCN)NC1=O)[C@@H](C)O ({Heptanoyl(6-Me)}-[Dab]T[Dab][Dab][Dab][dF]L[Dab][Dab]T; lactam 4-C)
HC10 (Erythrocyte): 512 µg/mL
Activity [1]: Non-Toxic
Activity [2]: Toxic
Activity [3]: Toxic
LD50 at 168 h [4]: 26.7 mg/kg
